Results: publication PMC6773697, “Antileukemic activity of novel adenosine derivatives” (Scientific Reports, 2019)
pIC50: −log10 of the molar value.

Columns and labels:
THP-1 cells [1] = assay: Comet assay with proteinase K post-treatment (DNA-protein cross-links), THP-1; type: cell-based, human
Experimental: (§1) Single cell gel electrophoresis (comet assay) was used to detect alkali labile sites, single and double DNA strand breaks, and cross-links induced by genotoxic agents. After electrophoresis and gel staining with 4,6-diamidino-2-phenylindole (DAPI), the released DNA was visible under a fluorescence microscope as a characteristic comet tail. The cells were plated on 24-well plates (20,000 cells/mL) and treated with CLA, CLA-FMOR, CLA-FPIP, or CLA-FPIR at the indicated concentrations for 2, 24, and 48 h at 37 °C. Some cells were preincubated with an ATR kinase inhibitor (VE-821) for 1 h at 37 °C before adding the tested compounds. Next, cells were collected into Eppendorf tubes and rinsed with PBS. Then, cells were suspended in 0.75% low melting point (LMP) agarose dissolved in PBS (pH 7.4) and placed on microscope slides precoated with 0.5% normal melting point (NMP) agarose. Subsequently, the slides were treated with a cooled lysis buffer (2.5 M NaCl, 100 mM EDTA, 10 mM Tris, 1% Triton X-100, pH 9.0) for 1–24 h at 4 °C. Then, slides were placed in developing buffer (300 mM NaOH, 1 mM EDTA) for 20 min. Electrophoresis was performed in […] (30 mM NaOH, 1 mM EDTA) at 29 V and 30 mA for 20 min. The samples were stained with DAPI ([…]). The slides were stored in a wet chamber at 4 °C and analyzed under a fluorescence microscope. Fifty randomly selected cells from each slide were measured using image analysis (Nikon, Japan) attached to a COHU 4910 video camera, which was equipped with a UV-1 filter block consisting of an excitation filter (359 nm) and a barrier filter (461 nm) connected to the image analysis system Lucia-Comet v. 4.51 (Czech Republic)[41]. In the samples preincubated with VE-821, the level of DNA damage associated with the ATR kinase was determined.
Because cross-links can be undetectable in the alkaline comet assay, a variant of this method including post-treatment with proteinase K (Cat no: P2308) was used. […]

HL-60 cells [2] = assay: XTT cytotoxicity assay, HL-60; type: cell-based; details: Homo sapiens, 48 h incubation, none in the picture
Experimental: (§2) The cytotoxic activity test with XTT (sodium 3′-[1-(phenylaminocarbonyl)- 3,4-tetrazolium]-bis (4-methoxy-6-nitro) benzene sulfonic acid hydrate) is a colorimetric method for determining the parameters associated with cell viability. The cytotoxicity in HL-60, THP-1, MOLT-4, and HMEC-1 cells was measured by the XTT assay. XTT is reduced to formazan by the mitochondrial respiratory chain oxidoreductase, which is active only in living cells. The formed crystals of formazan are dissolved directly in the medium. The amount of product is proportional to the number of live cells.
(§3) The IC50 parameter was determined by dividing the mean absorbance values of the drug-treated samples by those of control cells and defined as the drug concentration causing a 50% reduction of cell viability relative to the control. It was calculated using the “Ed50v10(1)” computer application. Cells were plated in 96-well plates at a density of 15 × 10^3 cells in 100 μL culture medium. Drugs were then added at a concentration range of 10 nM–10,000 nM to obtain a final volume of the mixture of 150 μL. Some cells were preincubated with an ATR kinase inhibitor (VE-821) for 1 h at 37 °C before adding the tested compounds. In this case drugs were added at a concentration range of 10 nM–300 nM. For the XTT assay, after 48 h of incubation, the plates were centrifuged at 1,500 rpm for 10 min at 4 °C, the culture medium was removed, and the cells were suspended in 100 mm^3 of HBSS (Hank’s Buffered Salt Solution) containing 140 mM NaCl, 5 mM KCl, 0.8 mM MgCl2, 1.8 mM CaCl2, 1 mM Na2HPO4, 10 mM HEPES (N- (2-hydroxyethyl) -piperazine-N′- (2-ethanesulfonic acid), and 1% glucose at pH 7.4. Then, 50 μL of XTT solution (in PBS) was added to a final concentration of […]. In addition, PMS (phenazine methosulphate) - methyl dibenzo-N-methylpyrazine sulphate (0.383 mg/cm^3) was used, which was combined with XTT solution at a ratio of 1:50. After 4 h of incubation with XTT, absorbance was measured at a wavelength λ = 450 nm and reference wavelength λ = 690 nm with a microplate reader (BioTek, Winooski, VT, USA).

dCK in THP-1 cells = assay: Deoxycytidine kinase activity, THP-1; type: cell-based, human; details: THP-1, 24 h incubation
Experimental: Deoxycytidine kinase activity was measured in accordance with the manufacturer’s protocol. The cells, at final concentration were plated at 1 × 10^6 cells per 24-well plates and cultured with the tested compounds for 24 h. Some cells were preincubated with an ATR kinase inhibitor (VE-821) for 1 h at 37 °C before adding the tested compounds. After drug treatment, the cells were washed with PBS and resuspended in an ice-cold cytosol extraction buffer containing 1 mM phenylmethylsulfonyl fluoride (PMSF) and a protease inhibitor cocktail. The cell lysate was centrifuged at 10,000 × g for 30 min at 4 °C. The protein concentration was determined using the Bradford method. The supernatant (cytosolic fraction) was collected and stored at −80 °C. The clarified cytoplasm extracts, dCK standards, and blank control were added to the appropriate microtiter plate wells with a biotin-conjugated polyclonal antibody prepared specifically for dCK. Avidin conjugated to horseradish peroxidase (HRP) was added to each microplate well and incubated. Then, a TMB substrate solution was added to the plate. […] The enzyme-substrate reaction was terminated by addition of a sulfuric acid solution. The color change was measured spectrophotometrically at a wavelength of 450 nm using a microplate reader (BioTek).

THP-1 cells [3] = assay: XTT cytotoxicity assay, THP-1; type: cell-based, human; details: for pIC50: Homo sapiens, THP-1, XTT, 48 h incubation, none in the picture; for sensitivity of cells to the compound: THP-1, XTT
Experimental: as §2, §3

MOLT-4 cells = assay: XTT cytotoxicity assay, MOLT-4; type: cell-based, human; details: for pIC50: Homo sapiens, MOLT-4, XTT, 48 h incubation, none in the picture
Experimental: as §2, §3

[4] = test system: leukemic cells (HL-60, MOLT-4, THP-1); assay: XTT cytotoxicity assay, leukemic cells overall; type: cell-based, human; details: XTT, leukemic cell lines
Experimental: as §2, §3

HMEC-1 cells = assay: XTT cytotoxicity assay, HMEC-1 (normal dermal endothelium); type: cell-based; details: Homo sapiens, 48 h incubation, none in the picture
Experimental: as §2, §3

HL-60 cells [5] = assay: Comet assay with proteinase K post-treatment (DNA-protein cross-links), HL-60; type: cell-based, human; details: for DNA damage after proteinase K: HL-60, 24 h
Experimental: as §1
Because cross-links can be undetectable in the alkaline comet assay, a variant of this method including post-treatment with proteinase K (Cat no: P2308) was used. Proteinase K digests peptide bonds, releasing the cross-linked DNA […] the DNA-protein complexes without altering the structure of the DNA-DNA complexes to distinguish them. After lysis, the slides were washed three times in TE buffer (10 mM Tris, pH 10, 1 mM EDTA). The cells were treated with aliquots of proteinase K (60 µL per slide; 1 mg/mL TE buffer) for 1 h at 37 °C in a wet chamber. Further steps of the comet assay were performed as described above.

Row | Compound | DNA damage in the tail after proteinase K (THP-1 cells [1]; THP-1, 2–48 h) | pIC50 (HL-60 cells [2]) | dCK activity (dCK in THP-1 cells) | pIC50 (THP-1 cells [3]) | sensitivity of cells to the compound (THP-1 cells [3]) | pIC50 (MOLT-4 cells) | cytotoxic potency compared with CLA (MOLT-4 cells; MOLT-4, XTT) | cytotoxicity (in words) [4] | pIC50 (HMEC-1 cells) | DNA damage after proteinase K (HL-60 cells [5]) | DNA-protein cross-links after proteinase K (HL-60 cells [5]; HL-60, starting at 2 h of incubation) | DNA damage in the tail after proteinase K (THP-1 cells [1]; THP-1, 24 h)
1 | OC[C@H]1O[C@@H](n2cnc3c(N=CN4CCOCC4)nc(Cl)nc32)C[C@@H]1O [CLA-FMOR, [6-deamino-6-(N′, N′-3′-oxa-1′, 5′-pentamethyleneformamidine)] cladribine] | increased | 6.91 | highest dCK activity | 7.39 | highest sensitivity | 7.14 | more potent than CLA | high cytotoxic activity | 6.54 | increased the DNA damage | increased the level of cross-links | –
2 | OC[C@H]1O[C@@H](n2cnc3c(N=CN4CCCC4)nc(Cl)nc32)C[C@@H]1O [CLA-FPIR, [6-deamino-6-(N′, N′-l′, 4′-tetramethyleneformamidino)] cladribine] | – | 6.87 | highest dCK activity | 7.44 | highest sensitivity | 6.90 | – | high cytotoxic activity | 6.64 | increased the DNA damage | – | increased
